{
  "source": "ChEMBL document CHEMBL1147550",
  "about": "“Capped dipeptide phenethylamide inhibitors of the HCV NS3 protease” (Bioorg Med Chem Lett, 2004)",
  "data": [
    {"target": "Genome polyprotein (Hepatitis C virus genotype 1a (isolate 1) (HCV), UniProt P26664)", "sequence (P26664 1027-1657 limits assumed)": "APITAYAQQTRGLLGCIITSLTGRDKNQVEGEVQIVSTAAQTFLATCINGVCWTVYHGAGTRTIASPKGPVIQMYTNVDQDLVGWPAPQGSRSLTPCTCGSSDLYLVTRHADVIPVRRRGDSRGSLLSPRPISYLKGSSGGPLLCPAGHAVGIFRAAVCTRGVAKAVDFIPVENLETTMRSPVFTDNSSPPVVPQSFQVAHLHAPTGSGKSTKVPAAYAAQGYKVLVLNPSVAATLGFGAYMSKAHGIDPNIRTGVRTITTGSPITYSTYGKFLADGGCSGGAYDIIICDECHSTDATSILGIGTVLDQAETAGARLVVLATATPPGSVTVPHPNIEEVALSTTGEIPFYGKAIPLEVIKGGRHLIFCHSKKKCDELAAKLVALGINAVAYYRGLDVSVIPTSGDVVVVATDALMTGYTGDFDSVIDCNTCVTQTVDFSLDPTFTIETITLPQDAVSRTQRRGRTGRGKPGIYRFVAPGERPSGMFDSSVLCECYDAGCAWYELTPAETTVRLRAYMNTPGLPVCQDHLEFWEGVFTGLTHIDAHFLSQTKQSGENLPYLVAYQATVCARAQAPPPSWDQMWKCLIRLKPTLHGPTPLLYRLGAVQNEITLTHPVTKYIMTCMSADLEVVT", "test": "Inhibition of Hepatitis C virus NS3 protease in vitro.", "units": {"IC50": "µM"}, "values": [
      {"smiles": "CC(C)[C@H](O)C(=O)N1C[C@H](c2ccccc2)C[C@H]1C(=O)N[C@@H](CC(F)F)C(=O)NCCc1c(F)cc(C(=O)O)cc1F", "IC50": 18},
      {"smiles": "O=C(O)c1cc(F)c(CCNC(=O)[C@H](CC(F)F)NC(=O)[C@@H]2C[C@@H](c3ccccc3)CN2C(=O)CC2CCCC2)c(F)c1", "IC50": 34},
      {"smiles": "O=C(O)c1cc(F)c(CCNC(=O)[C@H](CC(F)F)NC(=O)[C@@H]2C[C@@H](c3ccccc3)CN2C(=O)C(O)C2CC2)c(F)c1", "note": "(stereo partly specified)", "IC50": "> 100"},
      {"smiles": "CCC(CC)C(O)C(=O)N1C[C@H](c2ccccc2)C[C@H]1C(=O)N[C@@H](CC(F)F)C(=O)NCCc1c(F)cc(C(=O)O)cc1F", "note": "(stereo partly specified)", "IC50": 50},
      {"smiles": "O=C(O)c1cc(F)c(CCNC(=O)[C@H](CC(F)F)NC(=O)[C@@H]2C[C@@H](c3ccccc3)CN2C(=O)[C@@H](O)c2ccccc2)c(F)c1", "IC50": "> 100"},
      {"smiles": "CC(C)[C@H](O)C(=O)N1C[C@H](OC2CCCCC2)C[C@H]1C(=O)N[C@@H](CC(F)F)C(=O)NCCc1c(F)cc(C(=O)O)cc1F", "IC50": 32},
      {"smiles": "CC(C)[C@H](O)C(=O)N1C[C@H](OCc2ccc(Br)cc2)C[C@H]1C(=O)N[C@@H](CC(F)F)C(=O)NCCc1c(F)cc(C(=O)O)cc1F", "IC50": 12},
      {"smiles": "O=C(O)c1cc(F)c(CCNC(=O)[C@H](CC(F)F)NC(=O)[C@@H]2C[C@@H](c3ccccc3)CN2C(=O)[C@H](O)C2CCCC2)c(F)c1", "IC50": 62},
      {"smiles": "O=C(O)c1cc(F)c(CCNC(=O)[C@H](CC(F)F)NC(=O)[C@@H]2C[C@@H](c3ccccc3)CN2C(=O)[C@@H](O)C2CCCC2)c(F)c1", "IC50": 13},
      {"smiles": "O=C(O)c1cc(F)c(CCNC(=O)[C@H](CC(F)F)NC(=O)[C@@H]2C[C@@H](c3ccccc3)CN2C(=O)[C@H](O)c2ccccc2)c(F)c1", "IC50": "> 100"},
      {"smiles": "CC(C)[C@H](O)C(=O)N1C[C@H](OCc2ccccc2Cl)C[C@H]1C(=O)N[C@@H](CC(F)F)C(=O)NCCc1c(F)cc(C(=O)O)cc1F", "IC50": "> 100"},
      {"smiles": "O=C(O)c1cc(F)c(CCNC(=O)[C@H](CC(F)F)NC(=O)[C@@H]2C[C@@H](c3ccccc3)CN2C(=O)C(O)Cc2ccccc2)c(F)c1", "note": "(stereo partly specified)", "IC50": "> 100"},
      {"smiles": "CC(C)COC(=O)N[C@H](C(=O)N1C[C@H](c2ccccc2)C[C@H]1C(=O)N[C@@H](CC(F)F)C(=O)NCCc1c(F)cc(C(=O)O)cc1F)C(C)C", "IC50": 0.9},
      {"smiles": "CC(C)COC(=O)N[C@H](C(=O)N[C@@H](CC(C)C)C(=O)N[C@@H](CC(F)F)C(=O)NCCc1ccc(C(=O)O)cc1Cl)C(C)C", "IC50": 2.4},
      {"smiles": "O=C(O)c1cc(F)c(CCNC(=O)[C@H](CC(F)F)NC(=O)[C@@H]2C[C@@H](c3ccccc3)CN2C(=O)[C@@H](O)C2CCCCC2)c(F)c1", "IC50": 14},
      {"smiles": "CC(C)(C)[C@H](O)C(=O)N1C[C@H](c2ccccc2)C[C@H]1C(=O)N[C@@H](CC(F)F)C(=O)NCCc1c(F)cc(C(=O)O)cc1F", "IC50": 18},
      {"smiles": "CC(C)[C@@H](O)C(=O)N1C[C@H](c2ccccc2)C[C@H]1C(=O)N[C@@H](CC(F)F)C(=O)NCCc1c(F)cc(C(=O)O)cc1F", "IC50": "> 100"},
      {"smiles": "CC(C)C[C@H](NC(=O)[C@H](O)c1ccccc1)C(=O)N[C@@H](CC(F)F)C(=O)C(=O)O", "IC50": 3},
      {"smiles": "CC(C)[C@H](O)C(=O)N1C[C@H](OCCCc2ccccc2)C[C@H]1C(=O)N[C@@H](CC(F)F)C(=O)NCCc1c(F)cc(C(=O)O)cc1F", "IC50": 11},
      {"smiles": "CC(C)CC(=O)N1C[C@H](c2ccccc2)C[C@H]1C(=O)N[C@@H](CC(F)F)C(=O)NCCc1c(F)cc(C(=O)O)cc1F", "IC50": 58},
      {"smiles": "CC(C)[C@H](O)C(=O)N1C[C@H](OCc2ccccc2)C[C@H]1C(=O)N[C@@H](CC(F)F)C(=O)NCCc1c(F)cc(C(=O)O)cc1F", "IC50": 27}
    ]}
  ]
}
